#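 The compound was tested at five concentrations on cells cultured in 96-well plates, with a 48-hour exposure period. GI50 = concentration required for 50% inhibition of growth. TGI is the concentration that stops growth completely.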
# What was measured:
# Assay in all cases: inhibition of tumour cell growth, NCI panel, 48 h
# 786-0 renal = system: 786-0 renal
# A549 NSCLC = system: A549 NSCLC
# COLO 205 colon = system: COLO 205 colon
# DU-145 prostate = system: DU-145 prostate
# HOP-62 NSCLC = system: HOP-62 NSCLC
# HOP-92 NSCLC = system: HOP-92 NSCLC
# OVCAR-3 ovarian = system: OVCAR-3 ovarian
# SK-MEL-2 melanoma = system: SK-MEL-2 melanoma
# TK-10 renal = system: TK-10 renal
# U251 CNS = system: U251 CNS
Compound,GI50 (786-0 renal) [µM],TGI (786-0 renal) [µM],GI50 (A549 NSCLC) [µM],TGI (A549 NSCLC) [µM],GI50 (COLO 205 colon) [µM],TGI (COLO 205 colon) [µM],GI50 (DU-145 prostate) [µM],TGI (DU-145 prostate) [µM],GI50 (HOP-62 NSCLC) [µM],TGI (HOP-62 NSCLC) [µM],GI50 (HOP-92 NSCLC) [µM],TGI (HOP-92 NSCLC) [µM],GI50 (OVCAR-3 ovarian) [µM],TGI (OVCAR-3 ovarian) [µM],GI50 (SK-MEL-2 melanoma) [µM],TGI (SK-MEL-2 melanoma) [µM],GI50 (TK-10 renal) [µM],TGI (TK-10 renal) [µM],GI50 (U251 CNS) [µM],TGI (U251 CNS) [µM]
CN(C)c1ccc(C(=O)c2ccc(N(C)C)c(N)c2)cc1N,9.74,> 91.5,8.4,> 100,2.32,18.5,5.32,28.1,5.91,> 100,1.46,> 70.4,1.86,8,4.3,> 100,14.5,98.6,2.79,> 100
NC(=O)C(Br)CBr (configuration not stated),5.65,16.1,3.71,10.6,1.03,2.56,2.26,5.72,18.4,43.5,1.39,3.1,1.48,2.83,2.26,,2.24,6.33,3.73,14.7
O=C(Cn1c(=O)c(-c2ccccc2)nc2ccccc21)c1cccnc1,> 100,> 100,> 100,> 100,> 100,> 100,> 100,> 100,> 100,> 100,27.7,> 100,> 100,> 100,> 100,> 100,> 100,> 100,> 100,> 100
CC/C=C\C/C=C\C[C@H](O)C/C=C1/C(=O)C=C[C@H]1C/C=C\CCC(=O)OC,3.53,> 8.25,> 8.25,> 8.25,3.87,> 8.25,4.95,> 8.25,3.17,> 8.25,> 8.25,> 8.25,2.08,7.71,> 8.25,> 8.25,> 8.25,> 8.25,2.66,> 8.25
Cc1ccccc1S(=O)(=O)N1[C@H](c2ccc(Cl)cc2)C(C(=O)N[C@@H](Cc2ccccc2)C(N)=O)=C[C@@H]1C(C)(C)C,9.46,23.9,3.43,13.1,6.8,14.3,8.26,20.4,7.75,15.1,7.24,17.4,6.12,14,9.59,17.6,9.43,19.1,5.28,12.1
C[C@@H]1COCCN1c1nc(-c2cnc(N)cc2C(F)F)nc(N2[C@H](C)COC[C@@H]2C)n1,0.272,12.5,0.235,12.1,0.371,12.5,0.336,14.5,0.332,13.2,0.09,1.14,0.293,12.7,0.382,7.62,0.209,4.51,0.355,13.7
O=C1c2ccccc2-c2c1c1ccc([N+](=O)[O-])cc1c(=O)n2CCNCCCNCCn1c2c(c3ccc([N+](=O)[O-])cc3c1=O)C(=O)c1ccccc1-2,0.0515,2.92,0.521,17.6,0.433,9.77,0.96,21.1,0.742,7.51,0.803,4.16,0.638,5.19,4,21.7,1.27,22.1,0.166,3.63
CC(=N\O)/C(C)=N/O.CC(=N\O)/C(C)=N/O.CC(=N\O)/C(C)=N/O.CC(=N\O)/C(C)=N/O.[Cu].[Cu],19.8,36.8,23,48.5,18.8,34,56.8,> 100,24.7,64.8,18.4,32.8,22.6,43.7,17.4,31.4,19.1,33.2,17.6,31.3
C=C(C)C(=O)OC1CC2(C)OC2CC(OC(C)=O)/C(C)=C/C2OC(=O)C(=C)C21 (configuration not stated),,6.37,,42.5,,3.42,,4.7,,26.5,,12.5,,7.96,,18.1,,14.1,,25.1
CC1=C(C(=O)Nc2ccc3[nH]ncc3c2)C(c2ccc(F)cc2)NC(=O)N1 (configuration not stated),> 25,> 25,> 25,> 25,> 25,> 25,> 25,> 25,> 25,> 25,0.425,> 25,> 25,> 25,> 25,> 25,> 25,> 25,> 25,> 25
COc1cc(C(=O)/C=C/c2c(-c3ccc(F)cc3)nc3sc(C)cn23)cc(OC)c1OC,8.88,> 100,9.34,> 100,4.94,> 100,7.52,> 100,85.1,> 100,0.155,6.32,3.66,> 100,5.75,> 100,28,> 100,4.07,> 100
N#Cc1cccc(C(=O)c2cnn(-c3ccc(F)cc3)c2N)c1,> 25,> 25,> 25,> 25,> 25,> 25,> 25,> 25,> 17.2,> 25,> 25,> 25,> 25,> 25,24.4,> 25,> 25,> 25,18.1,> 25
O=[N+]([O-])c1cc(O)c(O)cc1-c1cn2ccsc2n1,31,> 100,41.3,> 100,75.2,> 100,17.2,> 100,36.1,> 100,97.2,> 100,23.6,64,57.1,> 100,66.5,> 100,77.1,> 100
O=C(Nc1ncc(Cc2ccccc2)s1)c1ccc2c(c1)OCCCO2,2.44,> 100,0.725,> 100,0.579,> 100,2.3,> 100,0.73,> 100,> 24,> 100,0.614,> 100,1.36,> 100,6.17,> 100,0.631,> 100
O=C(Nc1ccc(Cl)cc1)c1cc2c(cc1O)[nH]c1ccccc12,2.76,7.54,2.85,10.3,2.39,5.53,3.81,13.2,2.8,6.6,3.18,12.5,3.72,12.2,2.47,6.98,2.54,6.56,3.18,11.3
CSc1ccc(-c2cc(-c3ccc(NC(=O)CCCN4CCCC4)cc3)nc(-c3ccc(NC(=O)CCCN4CCCC4)cc3)c2)cc1,6.88,23.9,1.67,3.17,2.05,4.39,4.1,13.3,1.7,3.5,1.72,5.61,3.97,14.6,4.58,19.2,4.56,17.5,1.64,3.12
NC1C2C(CC(=O)O)OCC=C3CN4CCC1(C(=O)C(=O)O)C4CC32 (configuration not stated),,> 100,,> 100,,> 100,,> 100,,> 100,,> 100,,> 100,,> 100,,> 100,,> 100
Nc1ccc(-c2nc3ccccc3[nH]2)c(O)c1,47.4,> 100,35.3,> 100,35,> 100,38.9,> 100,60.5,> 100,5.82,45.2,40.4,> 100,> 100,> 100,17.8,84,60.3,> 100
CCN(CC)CCOc1ccc(Nc2ncc3cc(-c4c(Cl)cccc4Cl)c(=O)n(CCOC)c3n2)cc1,0.0324,5.28,0.498,4.18,0.148,2.43,0.217,2.8,0.0715,7.05,0.0163,0.322,0.483,2.96,0.493,7.6,0.0785,0.832,0.608,5
CCc1ccc(-c2ccc(=O)n(-c3ccc(S(N)(=O)=O)cc3)n2)cc1,11.7,> 79.8,3.14,> 100,1.95,> 55.6,21.3,> 100,5.62,30.5,5.55,43.1,0.957,> 20.2,5.04,38.9,13.2,38.3,3.36,29
COc1ccc(Nc2ccnc(NCCNc3ccnc4cc(Cl)ccc34)n2)cc1,1.87,4.33,3.67,13.7,1.45,3.24,5.03,17.6,3.56,18.4,1,6.34,2.61,10.3,2.25,4.11,3.33,10.5,1.69,5.22
O=Nc1c(-c2cccc([N+](=O)[O-])c2)nc2cnccn12,,37.4,,83.8,,66.7,,40.2,,90.1,,38.4,,37.4,,68.1,,26.3,,42.4
OCc1cccc(-c2ccc3ncc(-c4nc(NC5CC5)ncc4F)n3c2)c1,0.347,3.03,0.341,> 100,0.242,0.656,0.287,1.83,0.266,2.7,0.303,0.901,0.27,1.09,0.244,0.671,0.3,> 100,0.25,> 100
CCOC(=O)c1cc2c(n1Cc1cc(OC)cc(OC)c1)-c1oncc1CCC2,0.104,> 100,0.112,> 100,0.0647,6.15,0.116,,0.242,> 100,0.0858,7.37,0.0274,0.0889,0.038,> 100,,> 100,0.255,> 100
CCON=C1C(C)(C)C(C)(C)C(C)(C)C1(C)C,,> 100,,> 100,,> 100,,> 100,,> 100,,> 100,,> 100,,> 100,,> 100,,> 100
Nc1c(C(=O)c2cccc(-c3ccc[n+]([O-])c3)c2)cnn1-c1ccc(F)cc1F,> 25,> 25,> 25,> 25,> 25,> 25,> 25,> 25,> 25,> 25,> 25,> 25,> 25,> 25,> 25,> 25,> 25,> 25,> 25,> 25
